This note sets out measurements from patent US20090081758A1, “Chimeric Cytochrome P450 Proteins and Methods of Use” (THE REGENTS OF THE UNIVERSITY OF MICHIGAN, priority 2007, published 2009).

One experiment deals with wt-PikC (Streptomyces venezuelae, UniProt O87605). The experiment can be described thus: Spectral substrate binding assay, wt-PikC. To be noted: Type I difference spectra, 1 μM P450, room temperature; read-out: Kd (dissociation constant). As to the method: (§1) Spectral substrate binding assays were performed using a UV-visible spectrophotometer 300 Bio (Cary) at room temperature by titrating 30 mM substrate DMSO solution (blank DMSO for reference group) into 1 ml of 1 μM P450 sample in 1 μl aliquots, leading to substrate concentration ranging from 30 to 360 μM. The series of Type I difference spectra were used to deduce ΔA (Apeak(389)−Atrough(424)). Then, the data were fit to Michaelis-Menten equation to obtain the dissociation constant Kd. As mentioned above, one benefit of the fusion protein arrangement is the facility of the covalent linkage to stabilize productive interactions between the P450 and redox partner, thus enhancing electron transfer efficiency. […] To test whether this also applies to PikC-RhFRED, we first determined the substrate binding affinity of YC-17 and narbomycin toward both PikC and PikC-RhFRED.

Experiment [1] concerns the target PikC-RhFRED. In words: Spectral substrate binding assay, PikC-RhFRED. To be noted: Type I difference spectra, 1 μM P450, room temperature; read-out: Kd (dissociation constant). Also noted: species or system Streptomyces venezuelae. The procedure:
as §1

For experiment [2], the system named is PikC-RhFRED. In words: Steady-state kinetics, substrate consumption by HPLC, PikC-RhFRED. Type of experiment: biochemical, Streptomyces venezuelae. To be noted: kcat/Km of PikC-RhFRED relative to wt-PikC with Fdr and Fdx. As to the method: Subsequently, the kinetic parameters of PikC-RhFRED were compared with those of the PikC-Fdr-Fdx three component system. […] Moreover, the solubility limitation (less than 500 μM) of macrolides in aqueous solution prevented us from deducing the K, value. Therefore, the apparent specificity constants (kcat/Km) were determined by fitting the low-concentration data to the linear region of a Michaelis-Menten curve. […] In contrast, the specificity constants of wt-PikC partnered by Fdr and Fdx were 0.24 μM^−1·min^−1 for YC-17 and 0.31 μM^−1·min^−1 for narbomycin. It is evident that the fusion enhanced the catalytic activity approximately 4 fold for both YC-17 and narbomycin. […] The presumed de-coupling between electron transfer and hydroxylation may account for this difference.
The standard reaction contains 100 nM of PikC-RhFRED (or 150 nM of wt-PikC with 3.5 μM spinach ferredoxin and 0.1 U/ml spinach ferredoxin-NADP^+ reductase), 20˜250 μM substrate in 200 μl of desalting buffer (50 mM NaH2PO4, pH 7.3, 1 mM EDTA, 0.2 mM DTE, 10% glycerol). After pre-incubation at 30° C. for 5 min, the reaction was initiated by adding 1 μl of 50 mM NADPH and 50 μl aliquots were taken at 0 s, 20 s, and 40 s (or Os, 30 s, and 60 s when substrate concentration greater than 100 μM) to thoroughly mix with 2×100 μl of chloroform. […]

wt-PikC, sequence (O87605 whole entry, the tested form may be a part): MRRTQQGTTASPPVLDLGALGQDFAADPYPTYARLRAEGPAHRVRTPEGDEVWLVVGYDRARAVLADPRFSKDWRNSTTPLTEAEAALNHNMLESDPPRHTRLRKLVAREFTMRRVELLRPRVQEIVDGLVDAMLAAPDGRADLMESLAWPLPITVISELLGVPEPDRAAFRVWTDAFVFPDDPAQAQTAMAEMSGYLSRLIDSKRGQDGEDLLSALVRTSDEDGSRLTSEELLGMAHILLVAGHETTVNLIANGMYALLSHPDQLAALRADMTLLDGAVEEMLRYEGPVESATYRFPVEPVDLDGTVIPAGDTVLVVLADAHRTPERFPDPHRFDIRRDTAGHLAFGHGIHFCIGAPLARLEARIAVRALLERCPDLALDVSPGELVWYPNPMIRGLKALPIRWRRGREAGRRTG

In the case of `CC[C@H]1OC(=O)[C@H](C)[C@@H](O[C@@H]2O[C@H](C)C[C@H](N(C)C)[C@H]2O)[C@@H](C)C[C@@H](C)C(=O)/C=C/[C@H]1C` [YC-17], the Kd at wt-PikC amounted to 113 ± 1.9 µM; on PikC-RhFRED [1] it was 92.6 ± 0.5 µM. For the same compound, the “enhancement of catalytic activity by fusion (PikC-RhFRED vs wt-PikC)” value in the experiment on PikC-RhFRED [2] is reported as “approximately 4 fold”.

`CC[C@H]1OC(=O)[C@H](C)C(=O)[C@H](C)[C@@H](O[C@@H]2O[C@H](C)C[C@H](N(C)C)[C@H]2O)[C@@H](C)C[C@@H](C)C(=O)/C=C/[C@H]1C` [narbomycin]: the Kd came to 288 ± 7.1 µM at wt-PikC and 215 ± 4.2 µM on PikC-RhFRED [1]. In addition, the “enhancement of catalytic activity by fusion (PikC-RhFRED vs wt-PikC)” value with PikC-RhFRED [2] was “approximately 4 fold”.
